In article PMC9623576, “Semisynthesis and Evaluation of Anti-Inflammatory Activity of the Cassane-Type Diterpenoid Taepeenin F and of Some Synthetic Intermediates” (Journal of Natural Products, 2022):

What was measured:
[1] = system: HepG2 human hepatocarcinoma cells; test: MTT cancer cell proliferation assay, HepG2; format: cell-based; conditions: Homo sapiens, HepG2, 72 h, MTT; for IC50: read-out: IC50; for IC20: read-out: IC20
Method: The five newly synthesized diterpenoids were evaluated for their cytotoxic effects against three selected tumor cell lines, B16-F10 murine melanoma cells, HT29 human colon adenocarcinoma cells, and HepG2 human hepatocarcinoma cells at increasing concentrations (0–100 μg/mL). After 72 h of treatment, cell viability was determined by an MTT assay, where the tetrazolium dye was transformed into formazan in the mitochondria of viable cells, its absorbance measured at 570 nm and expressed as a percentage with respect to untreated control cells (S3 Figure.). The concentrations required for 20, 50, and for 80% growth inhibition (IC20, IC50, and IC80) were also determined for each compound (Table 2).
A stock solution was frozen and stored at […]. Before the experiments, this solution was diluted in cell-culture medium to the adequate concentrations for each experiment. […] For nitrite assay, subcytotoxic concentrations (3/4IC50, 1/2IC50, and 1/4IC50), were used to ensure that the NO inhibitory potential was not due to a possible cytotoxic effect. The concentrations of 3/4IC50, 1/2IC50, and 1/4IC50 were used for the cell-cycle analysis. All experiments were measured and compared with control (untreated cells after 24, 48, or 72 h of treatment.)
Human colorectal adenocarcinoma cell line HT29 (ECACC no. 9172201; ATCC no. HTB-38), human hepatocarcinome cell line HepG2 (ECACC no. 85011430), mouse melanoma cells B16-F10 (ATCC no. CRL-6475), and murine monocyte/macrophage-like RAW 264.7 cell line (ATCC no, TIB-71) were cultured in DMEM (Dulbecco’s modified Eagle’s medium) supplemented with 2 mM glutamine, 10% heat-inactivated FCS (fetal calf serum), 10 000 units/mL of penicillin and 10 mg/mL of streptomycin, (for all cancer cell lines), 50 μg/mL of gentamicin (only for RAW 264.7 cell line), and incubated at 37 °C, in an atmosphere of 5% CO2 and 95% humidity. The culture media were changed every 48 h, and the confluent cultures were separated with a trypsin solution (0.25% EDTA). In all experiments, monolayer cells were grown to 80–90% confluence, in sterile cell culture flasks. All cell lines used were purchased from the cell bank of the University of Granada, Spain.
The cytotoxicity assay was performed by the MTT (3-(4,5-dimethylthiazol-2-yl)-2,5-diphenyltetrazolium bromide) method.[21] To quantify the cytotoxicity of compounds, the fresh and suspended cells were seeded in 96-well plates to a volume of 100 μL at 6.0 × 10^3 cells/mL for HT29 and RAW 264.7 cell lines, at 5.0 × 10^3 cells/mL for B16-F10 cells and 15.0 × 10^3 for Hep G2. Then, cells were incubated to adhere over 24 h at 37 °C with 5% CO2. All tested compounds were prepared in fresh growth medium. After 24 h, an additional 100 μL of medium with the corresponding concentrations of products (only medium in the control wells) was added to the corresponding wells, at various final concentrations (0–100 μg/mL). Finally, after 72 h of incubation at 37 °C with 5% CO2, the medium with the compounds were removed and 100 μL of MTT solution (0.5 mg/mL) in 50% of PBS 50% of medium was added to each well. After 1.5 h of incubation, formazan was resuspended in 100 μL of DMSO, and each concentration was tested in triplicate. Relative cell viability, with respect to untreated control cells, was measured by absorbance at 570 nm on an ELISA plate reader (Tecan Sunrise MR20-301, TECAN, Austria).
Cytotoxicity experimental data were fitted to a sigmoidal function (y = ymax/(x/a)^−b) by nonlinear regression. […] These analyses were performed using SigmaPlot 12.5 software. Similar analyses were performed to obtain the IC50 of NO production. All data shown here are representative of at least two independent experiments performed in triplicate. All quantitative data were summarized as the mean ± standard deviation (SD).

[2] = system: B16-F10 cells; test: Annexin V-FITC/propidium iodide apoptosis flow cytometry; format: cell-based, murine; conditions: for apoptotic effect: B16-F10, after 24 h of treatment
Description: Cytometric FACS analysis using annexin V-FITC and PI staining was used to differentiate four cell populations (Figure 5): normal cells (annexin V^– and PI^–), early apoptotic cells (annexin V^+ and PI^–), late apoptotic cells (annexin V^+ and PI^+), and necrotic cells (annexin V^– and PI^+).[33]
To confirm the proapoptotic effect of compounds 16 and 22, annexin V and PI double staining was detected with flow cytometry. An early indicator of apoptosis is the translocation of the membrane phospholipid phosphatidylserine from the cytoplasmic interface to the external surface of the plasmatic membrane. The phospholipid phosphatidylserine that accumulates on the external plasmatic membrane can be detected by annexin V/PI is a fluorescent dye that binds to the nuclei of dead cells. Apoptosis was assessed by flow cytometry using a FACScan (fluorescence-activated cell sorter) flow cytometer (Coulter Corporation, Hialeah, FL, USA).[37],[38] For this assay, 5 × 10^4 B16-F10 cells were plated in 24-well plates with 1.5 mL of medium and incubated for 24 h. […] Cells were collected and resuspended in a binding buffer (10 mM HEPES/NaOH, pH 7.4, 140 mM NaCl, 2.5 mM CaCl2). Annexin V-FITC conjugate (1 μg/mL) was then added and incubated for 15 min at room temperature in darkness. Just before the analysis by flow cytometry, cells were stained with 5 μL of 1 mg/mL PI solution. In each experiment, approximately 10 × 10^3 cells were analyzed, and the experiment was duplicated twice.

[3] = B16-F10, 48 h, IC50 concentration
[4] = B16-F10, 48 h, IC80 concentration
[5] = B16-F10, 72 h, IC50 concentration
[6] = B16-F10, 72 h, IC80 concentration

Row | SMILES | IC50 [1] | IC80 [1] | IC20 [1] | early apoptosis (Q4, annexin V+ PI-) [2, 3] | late apoptosis (Q2, annexin V+ PI+) [2, 3] | total apoptosis [2, 3] | early apoptosis (Q4, annexin V+ PI-) [2, 4] | late apoptosis (Q2, annexin V+ PI+) [2, 4] | total apoptosis [2, 4] | early apoptosis (Q4, annexin V+ PI-) [2, 5] | late apoptosis (Q2, annexin V+ PI+) [2, 5] | total apoptosis [2, 5] | early apoptosis (Q4, annexin V+ PI-) [2, 6] | late apoptosis (Q2, annexin V+ PI+) [2, 6] | total apoptosis [2, 6] | apoptotic effect [2]
1 | COC(=O)[C@]1(C)CCC[C@]2(C)c3cc(O)c(C=O)c(C)c3CC[C@@H]12 [Compound 21, (1R,4aS,10aR)-Methyl 7-formyl-6-hydroxy-1,4a,8-trimethyl-1,2,3,4,4a,9,10,10a-octahydrophenanthrene-1-carboxylate] | 37.9 ± 5.4 µM | 45.3 ± 0.9 µM | 33.2 ± 8.64 µM | 6.93% | 18.30% | 25.23% | 5.73% | 27.13% | 32.86% | 5.33% | 17.03% | 22.36% | 23.56% | 17.66% | 41.23% | did not exert a significant effect
2 | COC(=O)[C@]1(C)CCC[C@@]2(C)[C@H]1CC=C1C(C)=C(C(C)C)C(=O)C[C@@H]12 [Compound 16, (1R,4aR,10aR)-Methyl 7-isopropyl-1,4a,8-trimethyl-6-oxo-1,2,3,4,4a,4b,5,6,10,10a-decahydrophenanthrene-1-carboxylate] | 18.5 ± 4.73 µM |  | 5.05 ± 2.74 µM | 3.73% | 9.40% | 13.13% | 12.06% | 14.53% | 26.6% | 0.06% | 7.63% | 7.7% | 27.63% | 21.13% | 48.76% | did not exert a significant effect
